In this assay the target is IRAK4 kinase (Homo sapiens (Human), UniProt Q9NWZ3). Briefly: IRAK4 kinase activity inhibition assay (ADP-Glo). The format is biochemical. The note with it: 10 μM ATP, MBP substrate, 60 min at 25° C. As to the method:
IRAK4 kinase (purchased from Life Technologies, Cat. No.: PR5612U) was diluted to 2 folds of the final concentration (the final concentration is 0.76 ng/μL) with reaction buffer (40 mM Tris-HCl, pH 7.5; 20 mM MgCl2; 0.1 mg/mL BSA; 1 mM DTT), and added to a 384-well plate at 5 μL/well. The test drugs were 10-fold serial diluted from 10 μM to set six concentration points and added to the test wells of the 384-well plate at 2.5 μL/well. After incubation for 10 min at 25° C., 10 μM of ATP and […] of an enzyme reaction substrate, myelin basic protein MBP (purchased from SignalChem, Cat. No.: M42-51N) were added at 2.5 µL/well, and reacted at 25° C. for 60 minutes. After the reaction was completed, the kinase activity assay was performed using the ADP-Glo™ kinase assay kit (purchased from Promega, Cat. No.: V9102) according to the manufacture's instruction, i.e., 10 μL of ADP-Glo reaction reagent was first added and reacted at 25° C. for 40 minutes, 10 μL of the solution to be tested was taken and mixed with 10 μL of ADP-Glo detection reagent, and reacted at 25° C. for 30 minutes. The kinase activity was then detected, and the IC50 values of the test drugs were calculated.
In general terms: ADP-Glo first removes unused ATP, then detects ADP through luciferase.
IRAK4 kinase, sequence (Q9NWZ3 whole entry): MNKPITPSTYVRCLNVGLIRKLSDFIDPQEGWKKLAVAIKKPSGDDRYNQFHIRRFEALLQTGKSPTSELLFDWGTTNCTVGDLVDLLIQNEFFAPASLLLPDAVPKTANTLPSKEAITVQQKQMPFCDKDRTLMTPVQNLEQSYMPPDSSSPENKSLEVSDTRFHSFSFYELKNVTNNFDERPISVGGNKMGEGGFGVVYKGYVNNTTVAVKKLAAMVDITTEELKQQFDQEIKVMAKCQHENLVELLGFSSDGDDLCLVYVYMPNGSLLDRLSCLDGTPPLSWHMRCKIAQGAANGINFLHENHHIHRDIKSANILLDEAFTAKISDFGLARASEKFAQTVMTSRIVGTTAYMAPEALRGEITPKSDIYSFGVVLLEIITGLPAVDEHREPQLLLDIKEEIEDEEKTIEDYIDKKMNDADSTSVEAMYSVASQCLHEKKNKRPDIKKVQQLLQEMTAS
For `Cc1cc(Nc2nc(N[C@H]3CC[C@H](O)CC3)c3sccc3n2)sn1` [Compound 1, trans-4-((2-((3-methylisothiazol-5-yl)amino)thieno[3,2-d]pyrimidin-4-yl)amino)cyclohexanol], the IC50 – broadly, the point on the concentration scale where inhibition reaches its midpoint – was ≤ 100 nM.

On to `Cc1cc(Nc2nc(NC3CC(O)C3)c3sccc3n2)sn1` (centres unmarked) [Compound 2], for which the half-inhibitory concentration (IC50) is ≤ 100 nM.

For `Cc1cc(Nc2nc(N[C@H]3C[C@@](C)(O)C3)c3sccc3n2)sn1` [Compound 3], the IC50 is ≤ 100 nM.

For `Cc1cc(Nc2nc(N[C@H]3CC[C@@H](O)C3)c3sccc3n2)sn1` [Compound 4], the IC50 was ≤ 100 nM.

The molecule `Cc1cc(Nc2nc(N[C@H]3CC[C@H](O)C3)c3sccc3n2)sn1` [Compound 5] came in with an IC50 of 100 to 1000 nM.

`Cc1cc(Nc2nc(NC3CCC(C)(O)C3)c3sccc3n2)sn1` (centres unmarked) [Compound 6]: the concentration for half-maximal inhibition (IC50) was 100 to 1000 nM.

As to `Cc1cc(Nc2nc(N[C@@H]3C[C@H](CO)[C@@H](O)[C@H]3O)c3sccc3n2)sn1` [Compound 7], the IC50 was ≤ 100 nM.

For `Cc1cc(Nc2nc(N[C@H]3CC[C@@H](O)CC3)c3sccc3n2)sn1` [Compound 8], the IC50 is ≤ 100 nM.

As for `Cc1cc(Nc2nc(NC3CCC(CO)CC3)c3sccc3n2)sn1` (centres unmarked) [Compound 10], the IC50 was ≤ 100 nM.

The molecule `Cc1cc(Nc2nc(NC3CCC(O)C(C)C3)c3sccc3n2)sn1` (centres unmarked) [Compound 11] returned an IC50 of 100 to 1000 nM.

On to `CCC1(O)CCC(Nc2nc(Nc3cc(C)ns3)nc3ccsc23)CC1` (centres unmarked) [Compound 12], for which the half-maximal inhibitory concentration (IC50) was in the range of 100 to 1000 nM.

As to `Cc1cc(Nc2nc(NC3CCC(C(N)=O)CC3)c3sccc3n2)sn1` (centres unmarked) [Compound 13], the IC50 lay in the range of 100 to 1000 nM.

For `Cc1cc(Nc2nc(N[C@@H]3CC[C@H](O)[C@@H](O)C3)c3sccc3n2)sn1` [Compound 14], the IC50 was ≤ 100 nM.

Consider `Cc1cc(Nc2nc(O[C@H]3CC[C@H](O)CC3)c3sccc3n2)sn1` [Compound 15], for which the concentration for half-maximal inhibition (IC50) fell in the range of 100 to 1000 nM.

For `CO[C@H]1CC[C@H](Nc2nc(Nc3cc(C)ns3)nc3ccsc23)CC1` [Compound 16], the IC50 was in the range of 100 to 1000 nM.

`Cc1cc(Nc2nc(N[C@H]3CC[C@H](O)CC3)c3sccc3n2)on1` [Compound 17] returned an IC50 of 100 to 1000 nM.

For `Cn1cc(Nc2nc(N[C@H]3CC[C@H](O)CC3)c3sccc3n2)cn1` [Compound 18], the 50% inhibitory concentration (IC50) is ≤ 100 nM.

For the molecule `O[C@H]1CC[C@H](Nc2nc(Nc3cnoc3)nc3ccsc23)CC1` [Compound 19], the IC50 is 100 to 1000 nM.

Regarding `COc1cc(Nc2nc(N[C@@H]3C[C@H](CO)[C@@H](O)[C@H]3O)c3sccc3n2)ccn1` [Compound 20], the IC50 was ≤ 100 nM.

Consider `O[C@H]1CC[C@H](Nc2nc(Nc3ccncc3)nc3ccsc23)CC1` [Compound 21], for which the concentration for half-maximal inhibition (IC50) lay in the range of 1000 to 10000 nM.

Molecule `Cc1cc(Nc2nc(N[C@H]3CC[C@](C)(O)CC3)c3sccc3n2)cc(C)n1` [Compound 22] gave an IC50 of 100 to 1000 nM.

The molecule `COc1cc(Nc2nc(N[C@H]3CC[C@](C)(O)CC3)c3sccc3n2)ccn1` [Compound 23] gave an IC50 of 100 to 1000 nM.

`Cc1cc(Nc2nc(N(C)C3CCC(C)(O)CC3)c3sccc3n2)sn1` (centres unmarked) [Compound 24, 1-methyl-4-(methyl(2-((3-methylisothiazol-5-yl)amino)thieno[3,2-d]pyrimidin-4-yl)amino)cyclohexanol] showed an IC50 of 1000 to 10000 nM.

As for `O[C@H]1CC[C@H](Nc2nc(Nc3cnn(-c4ccccc4)c3)nc3ccsc23)CC1` [Compound 25, trans-4-((2-((1-phenyl-1H-pyrazol-4-yl)amino)thieno[3,2-d]pyrimidin-4-yl)amino)cyclohexanol], the IC50 is ≤ 100 nM.

Take `OCCn1cc(Nc2nc(N[C@H]3CC[C@H](O)CC3)c3sccc3n2)cn1` [Compound 26]: the concentration for half-maximal inhibition (IC50) was ≤ 100 nM.

Take `O[C@H]1CC[C@H](Nc2nc(Nc3cnn(C4CCCC4)c3)nc3ccsc23)CC1` [Compound 27]: the half-inhibitory concentration (IC50) fell in the range of 100 to 1000 nM.

For `O[C@H]1CC[C@H](Nc2nc(Nc3cnn(C4CCCNC4)c3)nc3ccsc23)CC1` (some centres unmarked) [Compound 28], the half-maximal inhibitory concentration (IC50) is ≤ 100 nM.

In turn, `Oc1ccccc1-n1cc(Nc2nc(N[C@H]3CC[C@H](O)CC3)c3sccc3n2)cn1` [Compound 29] registered an IC50 of 100 to 1000 nM.

For the molecule `Oc1cccc(-n2cc(Nc3nc(N[C@H]4CC[C@H](O)CC4)c4sccc4n3)cn2)c1` [Compound 30], the IC50 lay in the range of 100 to 1000 nM.

Regarding `Oc1ccc(-n2cc(Nc3nc(N[C@H]4CC[C@H](O)CC4)c4sccc4n3)cn2)cc1` [Compound 31], the concentration for half-maximal inhibition (IC50) lay within 100 to 1000 nM.

Molecule `O[C@H]1CC[C@H](Nc2nc(Nc3cnn(-c4cccc(N5CCOCC5)c4)c3)nc3ccsc23)CC1` [Compound 34] returned a concentration for half-maximal inhibition (IC50) of 100 to 1000 nM.

The molecule `O[C@H]1CC[C@H](Nc2nc(Nc3cnn(-c4ccc(N5CCOCC5)cc4)c3)nc3ccsc23)CC1` [Compound 35] gave an IC50 of 100 to 1000 nM.

The molecule `O[C@H]1CC[C@H](Nc2nc(Nc3cnn(-c4ccccn4)c3)nc3ccsc23)CC1` [Compound 36] yielded a 50% inhibitory concentration (IC50) of 100 to 1000 nM.

For `O[C@H]1CC[C@H](Nc2nc(Nc3cnn(-c4cccnc4)c3)nc3ccsc23)CC1` [Compound 37], the 50% inhibitory concentration (IC50) was ≤ 100 nM.

As to `O[C@H]1CC[C@H](Nc2nc(Nc3cnn(-c4ccncc4)c3)nc3ccsc23)CC1` [Compound 38], the IC50 is ≤ 100 nM.

Turning to `O[C@H]1CC[C@H](Nc2nc(Nc3cnn(-c4ccncn4)c3)nc3ccsc23)CC1` [Compound 39], the 50% inhibitory concentration (IC50) lay within 100 to 1000 nM.

Molecule `O[C@H]1CC[C@H](Nc2nc(Nc3cnn(-c4cncnc4)c3)nc3ccsc23)CC1` [Compound 40] gave an IC50 of 100 to 1000 nM.

With `Cc1ncccc1-n1cc(Nc2nc(N[C@H]3CC[C@H](O)CC3)c3sccc3n2)cn1` [Compound 41], the IC50 lay within 1000 to 10000 nM.

Molecule `Cc1cncc(-n2cc(Nc3nc(N[C@H]4CC[C@H](O)CC4)c4sccc4n3)cn2)c1` [Compound 42] yielded a half-inhibitory concentration (IC50) of 100 to 1000 nM.

Molecule `Cc1cc(-n2cc(Nc3nc(N[C@H]4CC[C@H](O)CC4)c4sccc4n3)cn2)ccn1` [Compound 43] had a 50% inhibitory concentration (IC50) of 100 to 1000 nM.

As for `C[C@]1(O)CC[C@H](Nc2nc(Nc3cnn(C(=O)CC4CCNCC4)c3)nc3ccsc23)CC1` [Compound 44], the concentration for half-maximal inhibition (IC50) was in the range of 100 to 1000 nM.

Molecule `CN1CCN(C(=O)c2cc(Nc3nc(N[C@H]4CC[C@H](O)CC4)c4sccc4n3)sn2)CC1` [Compound 45, (5-((4-((trans-4-hydroxycyclohexyl)amino)thieno[3,2-d]pyrimidin-2-yl)amino)isothiazol-3-yl)(4-methylpiperazin-1-yl)methanone] showed an IC50 of 100 to 1000 nM.

`COCCNC(=O)c1csc(Nc2nc(N[C@H]3CC[C@](C)(O)CC3)c3sccc3n2)c1` [Compound 46] returned a half-maximal inhibitory concentration (IC50) of 100 to 1000 nM.

In the case of `C[C@]1(O)CC[C@H](Nc2nc(Nc3cc(C(=O)N[C@H]4CCNC4)cs3)nc3ccsc23)CC1` [Compound 47], the IC50 is ≤ 100 nM.

Take `C[C@]1(O)CC[C@H](Nc2nc(Nc3cc(C(=O)N[C@@H]4CCNC4)cs3)nc3ccsc23)CC1` [Compound 48]: the IC50 was ≤ 100 nM.

As to `C[C@]1(O)CC[C@H](Nc2nc(Nc3cc(C(=O)NC4CCNCC4)cs3)nc3ccsc23)CC1` [Compound 49], the 50% inhibitory concentration (IC50) fell in the range of 100 to 1000 nM.

In the case of `CN1CCN(C(=O)c2csc(Nc3nc(N[C@H]4CC[C@](C)(O)CC4)c4sccc4n3)c2)CC1` [Compound 50], the IC50 was in the range of 100 to 1000 nM.

Turning to `C[C@]1(O)CC[C@H](Nc2nc(Nc3cc(C(=O)NC4CCNCC4)n[nH]3)nc3ccsc23)CC1` [Compound 51], the IC50 lay in the range of 1000 to 10000 nM.

In the case of `C[C@]1(O)CC[C@H](Nc2nc(Nc3cc(C(=O)NCCCO)ns3)nc3ccsc23)CC1` [Compound 52], the IC50 was ≤ 100 nM.

Take `COCCNC(=O)c1cc(Nc2nc(N[C@H]3CC[C@](C)(O)CC3)c3sccc3n2)sn1` [Compound 53]: the half-inhibitory concentration (IC50) lay in the range of 100 to 1000 nM.

For the molecule `C[C@]1(O)CC[C@H](Nc2nc(Nc3cc(C(=O)NCC4CCNCC4)ns3)nc3ccsc23)CC1` [Compound 54], the half-maximal inhibitory concentration (IC50) was ≤ 100 nM.

In the case of `C[C@]1(O)CC[C@H](Nc2nc(Nc3cc(C(=O)N[C@@H]4CCNC4)ns3)nc3ccsc23)CC1` [Compound 55], the concentration for half-maximal inhibition (IC50) is ≤ 100 nM.

For `C[C@]1(O)CC[C@H](Nc2nc(Nc3cc(C(=O)N[C@@H]4CCCNC4)ns3)nc3ccsc23)CC1` [Compound 56], the IC50 is ≤ 100 nM.

For the molecule `C[C@]1(O)CC[C@H](Nc2nc(Nc3cc(C(=O)NC4CCOCC4)ns3)nc3ccsc23)CC1` [Compound 57], the IC50 was ≤ 100 nM.

For the molecule `C[C@]1(O)CC[C@H](Nc2nc(Nc3cc(C(=O)NC4CCNCC4)ns3)nc3ccsc23)CC1` [Compound 58], the IC50 was ≤ 100 nM.

Regarding `CN1CCC(NC(=O)c2cc(Nc3nc(N[C@H]4CC[C@](C)(O)CC4)c4sccc4n3)sn2)CC1` [Compound 59], the IC50 is ≤ 100 nM.

`CC(=O)N1CCC(NC(=O)c2cc(Nc3nc(N[C@H]4CC[C@](C)(O)CC4)c4sccc4n3)sn2)CC1` [Compound 60] showed an IC50 of 100 to 1000 nM.

`C[C@]1(O)CC[C@H](Nc2nc(Nc3cc(C(=O)Nc4ccccc4)ns3)nc3ccsc23)CC1` [Compound 61] came in with a half-inhibitory concentration (IC50) of 1000 to 10000 nM.

Take `C[C@]1(O)CC[C@H](Nc2nc(Nc3cc(C(=O)Nc4cccnc4)ns3)nc3ccsc23)CC1` [Compound 62]: the IC50 was 100 to 1000 nM.

In turn, `C[C@]1(O)CC[C@H](Nc2nc(Nc3cc(C(=O)Nc4ccncc4)ns3)nc3ccsc23)CC1` [Compound 63] registered a 50% inhibitory concentration (IC50) of 100 to 1000 nM.

`C[C@]1(O)CC[C@H](Nc2nc(Nc3ccc(C(=O)N[C@@H]4CCNC4)cc3)nc3ccsc23)CC1` [Compound 64] displayed a half-inhibitory concentration (IC50) of 100 to 1000 nM.

`C[C@]1(O)CC[C@H](Nc2nc(Nc3cccc(C(=O)NC4CCNCC4)c3)nc3ccsc23)CC1` [Compound 65] yielded a half-inhibitory concentration (IC50) of 100 to 1000 nM.

These data come from patent US10988482B2, “IRAK4 inhibitor and use thereof” (BEIJING HANMI PHARMACEUTICAL CO., LTD., priority 2015, dated 2021).
